Key:
[1] = tested on: SOD1 G93A high copy transgenic mice; experiment: Forelimb grip strength test in SOD1 G93A mouse model of ALS; format: in vivo; settings: 10 weeks on drug; for grip strength Mean Diff. (Dunnett's multiple comparisons test, Vehicle vs. 0.5 mg/kg): 0.5 mg/kg daily ip; for grip strength Mean Diff. (Dunnett's multiple comparisons test, Vehicle vs. 5.0 mg/kg): 5.0 mg/kg daily ip
Protocol: Study Design. Three experimental groups of n=20 (10 male, 10 female) SOD1 G93A high copy transgenic mice were dosed daily via intraperitoneal administration of vehicle control; (R)-2-amino-N—((S)-1-(((S)-5-amino-1-(3-benzyl-1,2,4-oxadiazol-5-yl)pentyl)amino)-3-(4-hydroxy-2,6-dimethylphenyl)-1-oxopropan-2-yl)-5-guanidinopentanamide (as its tris-HCl salt-(Ia)) at 0.5 mg/kg; or (R)-2-amino-N—((S)-1-(((S)-5-amino-1-(3-benzyl-1,2,4-oxadiazol-5-yl)pentyl)amino)-3-(4-hydroxy-2,6-dimethylphenyl)-1-oxopropan-2-yl)-5-guanidinopentanamide (as its tris-HCl salt—(Ia)) at 5.0 mg/kg. Animals were dosed beginning at 8 weeks of age and dosing was continued until humane end of life (defined by the inability of animal to right itself from either side within 30 seconds when placed on its side). Experimental endpoints and in-life collections and observations were as follows: • 1. Bodyweight measurement. Daily recording of weight. • 2. Neurological scoring. Weekly NeuroScore, a qualitative assessment of neurological disease progression based upon a five-point grading system. Scoring is defined as follows: • Score 0: Full extension of hind legs away from the lateral midline when the mouse is suspended by its tail, and the mouse can hold this extension for 2 seconds, being suspended 3 times consecutively. • Score 1: Collapse or partial collapse of the leg extension toward the lateral midline or trembling of hind legs during the tail suspension. • Score 2: Toes curl under at least twice during walking of 12 inches, or any part of the foot is dragging along the cage bottom or table. • Score 3: Rigid paralysis or minimal joint movement, the foot is not being used for forward motion. • Score 4: The mouse cannot right itself within 30 sec from either side. • 3. Grip strength test. Weekly forelimb grip strength, performed as follows: • a. Subjects are weighed and acclimated to the testing room for at least 60 min. • b. Equipment: Bioseb grip strength meter equipped with a grid for grasping that is suited for mice. • c. Mice are lowered towards the grid by their tails to allow for visual placing and for the mouse to grip the grid with their forepaws. • d. Subjects are firmly pulled horizontally away from the grid (parallel to the bench) for 3 consecutive trials with a brief (approximately 30 sec) rest period on the bench between trials. • e. The average force in grams of the 3 forepaw and 3 all-paws trials are analyzed with and without normalization to body weight. • 4. Retro-orbital blood collection. Bi-weekly retroorbital eye bleeds to determine drug exposure levels as well as levels of neurofilament light chain, a biomarker of axonal damage shown to correlate with ALS disease progression in human patients. Briefly, mice are sedated with isoflurane (5% induction, 2% maintenance) in O2. […]
Systemic administration of (R)-2-amino-N—((S)-1-(((S)-5-amino-1-(3-benzyl-1,2,4-oxadiazol-5-yl)pentypamino)-3-(4-hydroxy-2,6-dimethylphenyl)-1-oxopropan-2-yl)-5-guanidinopentanamide attenuates decline in muscle strength in ALS mouse model. As shown in FIG. 2A and Table 1A, systemic administration of (R)-2-amino-N—((S)-1-(((S)-5-amino-1-(3-benzyl-1,2,4-oxadiazol-5-yl)pentyl)amino)-3-(4-hydroxy-2,6-dimethylphenyl)-1-oxopropan-2-yl)-5-guanidinopentanamide (as its tris-HCl salt—(Ia)) attenuates the loss of grip strength in male SOD1 G93A transgenic mice. Grip strength values were determined at baseline (week 8) and through end of life for each animal. […]

[2] = tested on: SOD1 G93A high copy transgenic mice; experiment: Lifespan (survival to humane end of life) in SOD1 G93A mouse model of ALS; format: in vivo; settings: vs vehicle control
Protocol: Study Design. Three experimental groups of n=20 (10 male, 10 female) SOD1 G93A high copy transgenic mice were dosed daily via intraperitoneal administration of vehicle control; (R)-2-amino-N—((S)-1-(((S)-5-amino-1-(3-benzyl-1,2,4-oxadiazol-5-yl)pentyl)amino)-3-(4-hydroxy-2,6-dimethylphenyl)-1-oxopropan-2-yl)-5-guanidinopentanamide (as its tris-HCl salt-(Ia)) at 0.5 mg/kg; or (R)-2-amino-N—((S)-1-(((S)-5-amino-1-(3-benzyl-1,2,4-oxadiazol-5-yl)pentyl)amino)-3-(4-hydroxy-2,6-dimethylphenyl)-1-oxopropan-2-yl)-5-guanidinopentanamide (as its tris-HCl salt—(Ia)) at 5.0 mg/kg. Animals were dosed beginning at 8 weeks of age and dosing was continued until humane end of life (defined by the inability of animal to right itself from either side within 30 seconds when placed on its side). Experimental endpoints and in-life collections and observations were as follows: • 1. Bodyweight measurement. Daily recording of weight. • 2. Neurological scoring. Weekly NeuroScore, a qualitative assessment of neurological disease progression based upon a five-point grading system. […] The average force in grams of the 3 forepaw and 3 all-paws trials are analyzed with and without normalization to body weight. • 4. […]

[3] = Drug levels in whole brain homogenate by LC-MS/MS after subcutaneous injection; format: in vivo; settings: Sprague Dawley rats, 5 mg/kg subcutaneous, over 36 hours, compared with elamipretide
Protocol: Sprague Dawley rats were injected subcutaneously with 5 mg/kg of Compound Ia or elamipretide (n=4 per time-point). Animals were sacrificed at the indicated timepoints and transcardial perfusion was performed. Drug levels in whole brain homogenate were determined by LC-MS/MS.

[4] = tested on: C57BL/6 mice injected with A53T mutant alpha-synuclein viral particles; experiment: Dopaminergic neuron loss in substantia nigra pars compacta induced by AAV9 human A53T alpha-synuclein (TH positive neuron counts); format: in vivo, mouse; settings: 0.5 mg/kg or 5.0 mg/kg daily ip for 5 weeks, vs group A (A53T AAV, no drug)
Protocol: Dopaminergic neuron loss in the substantia nigra pars compacta (SNc) was induced in wildtype C57BL/6 mice using AAV9 mediated viral delivery of human alpha-synuclein harboring the pathogenic A53T mutation. 4×10^10 viral particles per SNc were injected bilaterally via stereotactic surgery. Animals were nine weeks of age when viral transduction was performed. Animals were treated daily with intraperitoneal administration of (Ia) beginning 24 hours before viral transduction and continued for 5 weeks. Experimental groups were as follows: • 1. Group A—AAV A53T injected, vehicle treatment (n=7) • 2. Group B1—AAV A53T injected, (Ia) at 0.5 mg/kg treatment (n=8) • 3. Group B2—AAV A53T injected, (Ia) at 5.0 mg/kg treatment (n=8) • 4. Group C1—Sham AAV9 injected, (Ia) at 0.5 mg/kg treatment (n=6) • 5. Group C2—Sham AAV9 injected, (Ia) at 5.0 mg/kg treatment (n=7)
Five weeks following viral transduction, animals were sacrificed and brains were removed and processed for immunohistochemistry and cell counts (i.e., number of TH positive neurons) in the substantia nigra pars compacta were performed via automated stereology. Serial sections were cut and stained with tyrosine hydroxylase (TH) to enumerate the number of dopaminergic neurons. Results are illustrated in FIGS. 6A and 6B; ** p<0.01 vs groups; *** p<0.001 vs group A; ^OO p<0.001 vs group C1 and C2.

[5] = tested on: mitochondrial respiration in brain homogenate from the infarcted area; experiment: Mitochondrial respiration (respiratory control ratio) in brain homogenate after endothelin-1 induced ischemic stroke; format: in vivo, Sprague Dawley rats; settings: rats, ET-1 middle cerebral artery occlusion, 5 mg/kg sc at 24 and 4 hours prior to ischemia, measured 24 hours after onset
Protocol: Ischemic stroke was induced in Sprague Dawley rats via middle cerebral artery occlusion with the vasoconstrictive peptide endothelin-1 (ET-1; 240 pmol per injection). Compound Ia was administered to each rat at 24 and 4 hours prior to onset of ischemia via subcutaneous injection at 5 mg/kg. Mitochondrial respiration was measured in brain homogenate excised from the infarcted area 24 hours following the onset of ischemia using high resolution respirometry (OxyGraph 02K). Respiratory control ratio was calculated as complex I supported oxidative phosphorylation divided by Complex I linked leak respiration. Results are illustrated in FIG. 5B, ** p<0.01, one-way ANOVA.

Q: With `Cc1cc(O)cc(C)c1C[C@H](NC(=O)[C@H](N)CCCNC(=N)N)C(=O)N[C@@H](CCCCN)c1nc(Cc2ccccc2)no1.Cl.Cl.Cl` [Compound Ia, (R)-2-amino-N—((S)-1-(((S)-5-amino-1-(3-benzyl-1,2,4-oxadiazol-5-yl)pentyl)amino)-3-(4-hydroxy-2,6-dimethylphenyl)-1-oxopropan-2-yl)-5-guanidinopentanamide·3HCl] as the compound, how does the “grip strength Mean Diff. (Dunnett's multiple comparisons test, Vehicle vs. 0.5 mg/kg)” value ([1]; female SOD1 G93A mice) read?
A: Its value is −6.081.

Q: And the “grip strength Mean Diff. (Dunnett's multiple comparisons test, Vehicle vs. 5.0 mg/kg)” value ([1]; female SOD1 G93A mice)?
A: The value was −7.905.

Q: What about the “grip strength Mean Diff. (Dunnett's multiple comparisons test, Vehicle vs. 0.5 mg/kg)” value ([1]; male SOD1 G93A mice) of the same compound?
A: The value was −0.7940.

Q: What about the “grip strength Mean Diff. (Dunnett's multiple comparisons test, Vehicle vs. 5.0 mg/kg)” value ([1]; male SOD1 G93A mice) of the same compound?
A: Its value is −11.90.

Q: What about the “loss of grip strength” value ([1]; male SOD1 G93A mice, 5.0 mg/kg, p=0.08) of the same compound?
A: The value was “trend in protection from loss of grip strength”.

Q: What about the lifespan ([2]; female SOD1 G93A mice, daily intraperitoneal) of the same compound?
A: The lifespan was “no effects”.

Q: What about the lifespan ([2]; male SOD1 G93A mice, 5.0 mg/kg daily intraperitoneal) of the same compound?
A: Its lifespan is “significantly increased”.

Q: What about the “brain exposure (drug levels in whole brain homogenate)” value [3] of the same compound?
A: Its value is “higher than that of elamipretide”.

Q: What about the “mutant alpha-synuclein-induced loss of dopaminergic neurons in the substantia nigra (number of TH positive neurons)” value [4] of the same compound?
A: The value was “significantly attenuated”.

Q: And the “mitochondrial respiration in brain (respiratory control ratio)” value [5]?
A: Its value is “restored mitochondrial respiration in brain”.

Source: US12016843B2, “Compositions and methods for the treatment of amyotrophic lateral sclerosis, parkinson's disease, parkinson's disease with dementia, dementia with lewy bodies, and multiple system atrophy” (priority 2019, dated 2024)
